± gives the expanded uncertainty stated by the source.
Experiment: xn = mol fraction of the nth substance listed
Settings: 101 kPa, Liquid; for speed of sound: Sing-around technique in a fixed-path interferometer; for mass density: Vibrating tube method

CN(CCO)CCO [N-methyldiethanolamine] + NCCO
Settings | mass density [kg/m3] | speed of sound [m/s]
293.15 K, x2 = 0 | 1042.2 ± 0.92 | 1585.5 ± 2.1
293.15 K, x2 = 0.1789 | 1040.32 ± 0.77 | 1603.7 ± 2
293.15 K, x2 = 0.3286 | 1038.49 ± 0.65 | 1622.3 ± 1.9
293.15 K, x2 = 0.456 | 1036.46 ± 0.56 | 1640 ± 1.7
293.15 K, x2 = 0.5691 | 1034.2 ± 0.48 | 1656.3 ± 1.6
293.15 K, x2 = 0.6614 | 1031.81 ± 0.42 | 1671.6 ± 1.6
293.15 K, x2 = 0.7451 | 1029.17 ± 0.37 | 1686 ± 1.5
293.15 K, x2 = 0.8197 | 1026.39 ± 0.33 | 1698.7 ± 1.4
293.15 K, x2 = 0.854 | 1025 ± 0.32 | 1705.5 ± 1.4
293.15 K, x2 = 0.8865 | 1023.48 ± 0.3 | 1712 ± 1.4
293.15 K, x2 = 0.9461 | 1020.22 ± 0.27 | 1723.3 ± 1.3
293.15 K, x2 = 0.9738 | 1018.27 ± 0.25 | 1729.4 ± 1.3
298.15 K, x2 = 0 | 1038.29 ± 0.92 | 1570.1 ± 2.1
298.15 K, x2 = 0.1789 | 1036.35 ± 0.76 | 1588.5 ± 2
298.15 K, x2 = 0.3286 | 1034.46 ± 0.64 | 1607.1 ± 1.8
298.15 K, x2 = 0.456 | 1032.46 ± 0.55 | 1624.7 ± 1.7
298.15 K, x2 = 0.5691 | 1030.16 ± 0.48 | 1641 ± 1.6
298.15 K, x2 = 0.6614 | 1027.72 ± 0.42 | 1656.2 ± 1.6
298.15 K, x2 = 0.7451 | 1025.1 ± 0.37 | 1670.5 ± 1.5
298.15 K, x2 = 0.8197 | 1022.32 ± 0.33 | 1683.1 ± 1.4
298.15 K, x2 = 0.854 | 1020.84 ± 0.31 | 1689.8 ± 1.4
298.15 K, x2 = 0.8865 | 1019.33 ± 0.29 | 1696.3 ± 1.4
298.15 K, x2 = 0.9461 | 1016.09 ± 0.27 | 1707.3 ± 1.3
298.15 K, x2 = 0.9738 | 1014.2 ± 0.25 | 1713.3 ± 1.3
303.15 K, x2 = 0 | 1034.36 ± 0.91 | 1554.8 ± 2.1
303.15 K, x2 = 0.1789 | 1032.34 ± 0.75 | 1573.4 ± 2
303.15 K, x2 = 0.3286 | 1030.41 ± 0.64 | 1591.9 ± 1.8
303.15 K, x2 = 0.456 | 1028.38 ± 0.55 | 1609.4 ± 1.7
303.15 K, x2 = 0.5691 | 1026.07 ± 0.47 | 1625.7 ± 1.6
303.15 K, x2 = 0.6614 | 1023.61 ± 0.41 | 1640.8 ± 1.6
303.15 K, x2 = 0.7451 | 1020.96 ± 0.37 | 1655 ± 1.5
303.15 K, x2 = 0.8197 | 1018.17 ± 0.33 | 1667.5 ± 1.4
303.15 K, x2 = 0.854 | 1016.66 ± 0.31 | 1674.1 ± 1.4
303.15 K, x2 = 0.8865 | 1015.15 ± 0.29 | 1680.6 ± 1.4
303.15 K, x2 = 0.9461 | 1011.9 ± 0.26 | 1691.5 ± 1.3
303.15 K, x2 = 0.9738 | 1009.95 ± 0.25 | 1697.5 ± 1.3
308.15 K, x2 = 0 | 1030.43 ± 0.9 | 1539.5 ± 2.1
308.15 K, x2 = 0.1789 | 1028.36 ± 0.75 | 1558.2 ± 2
308.15 K, x2 = 0.3286 | 1026.41 ± 0.63 | 1576.6 ± 1.8
308.15 K, x2 = 0.456 | 1024.37 ± 0.54 | 1594 ± 1.7
308.15 K, x2 = 0.5691 | 1022.01 ± 0.47 | 1610.2 ± 1.6
308.15 K, x2 = 0.6614 | 1019.55 ± 0.41 | 1625.2 ± 1.6
308.15 K, x2 = 0.7451 | 1016.86 ± 0.36 | 1639.4 ± 1.5
308.15 K, x2 = 0.8197 | 1014.03 ± 0.32 | 1651.8 ± 1.4
308.15 K, x2 = 0.854 | 1012.55 ± 0.3 | 1658.3 ± 1.4
308.15 K, x2 = 0.8865 | 1011.03 ± 0.29 | 1664.7 ± 1.4
308.15 K, x2 = 0.9461 | 1007.83 ± 0.26 | 1675.5 ± 1.3
308.15 K, x2 = 0.9738 | 1005.91 ± 0.24 | 1681.3 ± 1.3
313.15 K, x2 = 0 | 1026.48 ± 0.89 | 1524.2 ± 2.1
313.15 K, x2 = 0.1789 | 1024.36 ± 0.74 | 1543 ± 2
313.15 K, x2 = 0.3286 | 1022.38 ± 0.62 | 1561.3 ± 1.8
313.15 K, x2 = 0.456 | 1020.33 ± 0.54 | 1578.7 ± 1.7
313.15 K, x2 = 0.5691 | 1017.96 ± 0.46 | 1594.7 ± 1.6
313.15 K, x2 = 0.6614 | 1015.47 ± 0.41 | 1609.7 ± 1.6
313.15 K, x2 = 0.7451 | 1012.76 ± 0.36 | 1623.8 ± 1.5
313.15 K, x2 = 0.8197 | 1009.92 ± 0.32 | 1636 ± 1.4
313.15 K, x2 = 0.854 | 1008.44 ± 0.3 | 1642.5 ± 1.4
313.15 K, x2 = 0.8865 | 1006.91 ± 0.28 | 1648.8 ± 1.4
313.15 K, x2 = 0.9461 | 1003.74 ± 0.25 | 1659.5 ± 1.3
313.15 K, x2 = 0.9738 | 1001.87 ± 0.24 | 1665.2 ± 1.3
318.15 K, x2 = 0 | 1022.53 ± 0.88 | 1508.8 ± 2.1
318.15 K, x2 = 0.1789 | 1020.38 ± 0.73 | 1527.7 ± 2
318.15 K, x2 = 0.3286 | 1018.35 ± 0.62 | 1546 ± 1.8
318.15 K, x2 = 0.456 | 1016.27 ± 0.53 | 1563.2 ± 1.7
318.15 K, x2 = 0.5691 | 1013.89 ± 0.46 | 1579.2 ± 1.6
318.15 K, x2 = 0.6614 | 1011.39 ± 0.4 | 1594.1 ± 1.6
318.15 K, x2 = 0.7451 | 1008.66 ± 0.35 | 1608 ± 1.5
318.15 K, x2 = 0.8197 | 1005.81 ± 0.31 | 1620.2 ± 1.4
318.15 K, x2 = 0.854 | 1004.31 ± 0.3 | 1626.6 ± 1.4
318.15 K, x2 = 0.8865 | 1002.79 ± 0.28 | 1632.8 ± 1.4
318.15 K, x2 = 0.9461 | 999.607 ± 0.25 | 1643.3 ± 1.3
318.15 K, x2 = 0.9738 | 997.788 ± 0.24 | 1649 ± 1.3
323.15 K, x2 = 0 | 1018.58 ± 0.88 | 1493.4 ± 2.1
323.15 K, x2 = 0.1789 | 1016.38 ± 0.73 | 1512.4 ± 2
323.15 K, x2 = 0.3286 | 1014.32 ± 0.61 | 1530.6 ± 1.8
323.15 K, x2 = 0.456 | 1012.2 ± 0.52 | 1547.7 ± 1.7
323.15 K, x2 = 0.5691 | 1009.81 ± 0.45 | 1563.6 ± 1.6
323.15 K, x2 = 0.6614 | 1007.31 ± 0.4 | 1578.4 ± 1.5
323.15 K, x2 = 0.7451 | 1004.57 ± 0.35 | 1592.2 ± 1.5
323.15 K, x2 = 0.8197 | 1001.7 ± 0.31 | 1604.3 ± 1.4
323.15 K, x2 = 0.854 | 1000.21 ± 0.29 | 1610.7 ± 1.4
323.15 K, x2 = 0.8865 | 998.693 ± 0.28 | 1616.8 ± 1.4
323.15 K, x2 = 0.9461 | 995.464 ± 0.25 | 1627.2 ± 1.3
323.15 K, x2 = 0.9738 | 993.693 ± 0.24 | 1632.8 ± 1.3

From the NIST ThermoML archive (doi:10.1021/je900437b)
